Columns and labels:
[1] = molecular target: T1, T7 MLD capsid II (Escherichia phage T7, UniProt P03728+P19726); conditions: 25° C.; FIG. 5 adapted from Khan et al. 1992; cited from earlier work
T1 construct: These latter capsid shells are produced during DNA packaging

[2] = molecular target: T2, MHD capsid II (Escherichia phage T7, UniProt P19726); test: Fluorescence (I) vs. time binding of bis-ANS to connector-free capsid; type: physicochemical; conditions: capsid II particle without connector
T2 construct: These latter capsid shells are produced during DNA packaging; made in house; host or cells: phage-infected E. coli (inferred)
Text: For measuring the rate of loading of a compound in MLD capsid II, an alternative to AUC-BD is usually needed for reasons of efficiency of time and cost. Total fluorescence (/) has been used to determine the rate of loading for bis-ANS, because bis-ANS undergoes fluorescence enhancement when it binds to hydrophobic areas of proteins, including several internal T7 proteins (gps8, gps15, gps16)—the T7 proteins bound were identified by ultraviolet light-induced, covalent cross-linking to bis-ANS after binding. The value of I vs. time at 25° C. is plotted in FIG. 5 (adapted from Khan et al., Biophys. J. 1992, 63:1286-1292), during incubation of bis-ANS with T7 MLD capsid II and also the mature phage T7 and a T7 deletion mutant, C5-LG3. Binding to the exterior of the capsid was so rapid that it was complete before the first measurement. […] Thus, the loading rate is simply observed by measuring I vs. time and subtracting the initial signal. […] MLD capsid II-bound bis-ANS fluorescence is quenched by incubation with ethidium cation.

[3] = molecular target: T3, MLD capsid II (Escherichia phage T7, UniProt P03728+P19726); test: Diffusion-driven permeation of dyes into internal cavity of MLD capsid II; type: physicochemical; conditions: entry through the gp8 portal
T3 construct: These latter capsid shells are produced during DNA packaging
Text: MLD Capsid II. […] Thus, bis-ANS, ethidium, and presumably other similarly sized compounds enter MLD capsid II through the gp8 portal (see FIG. 1a).

[4] = molecular target: T3, MLD capsid II; test: Buoyant density after incubation with sodium iothalamate; type: physicochemical; conditions: 25° C.; loads, but very slowly
Text: Assays for Loading. To assay for diffusion-driven loading of a compound in the cavity of MLD capsid II, the most direct method is to perform buoyant density equilibrium centrifugation in a non-ionic density gradient of either Metrizamide (mw=789) or the closely related compound, Nycodenz (mw=821). If a compound enters MLD capsid II, the density changes after loading. Most dyes and drugs would, if loaded, cause the density of MLD capsid II to increase. The reason is that most dyes and drugs are denser than water and a loaded dye or drug molecule replaces internal MLD capsid II water. The exceptionally high hydration of MLD capsid II causes the density of MLD capsid II to be extremely low, typically between 1.08 and 1.12 g/ml, decreasing with increasing centrifugation speed, i.e., with increasing pressure (unpublished observations of the laboratories of Borries Demeler and Philip Serwer).
As the temperature decreases, the loading rate is expected to decrease, eventually to zero at a critical temperature. The critical temperature is expected to decrease as the molecular weight of the compound loaded decreases. The borderline for loading MLD capsid II at 25° C. is somewhat higher than 612, based on the fact that iothalamate anion (mw =612) loads, but very slowly (>19 hours), as determined by the buoyant density after incubation with sodium iothalamate. […]

[5] = molecular target: T3, MLD capsid II; test: AUC-BD in a Nycodenz density gradient after pre-centrifugation incubation; type: physicochemical
Description: By use of recent technical advances, both densities and their pressure dependence have been explored by use of analytical buoyant density equilibrium sedimentation (AUC-BD) performed with a Nycodenz density gradient and a fluorescence detector. The data were analyzed with the UltraScan-III software (Demeler et al., (2012) UltraScan-III, a comprehensive analysis software for analytical ultracentrifugation experiments. The University of Texas Health Science Center at San Antonio, Dept. of Biochemistry). […] The sources of the peak sharpness are small diffusion coefficient and uniform density of phage and phage capsids. […] Fluorescence detection provides picomolar sensitivity and several orders of magnitude of dynamic range. AUC-BD is also efficient in that (1) no gradient fractionation and analysis of separate fractions is needed, (2) sample concentrations in the picomolar range are used, over 2 orders of magnitude less than what is needed for other procedures of detection, (3) 14 samples can be simultaneously run and (4) pressure and temperature dependences are determined with one set of samples by progressively changing the speed and temperature of centrifugation.
The details of the AUC-BD are the following. […] If the particle is uniform in density and its diffusion is low, then a sharp peak of fluorescence will form. […]

O=S(=O)(O)c1cccc2c(-c3ccc(Nc4ccccc4)c4c(S(=O)(=O)O)cccc34)ccc(Nc3ccccc3)c12 [bis-ANS, 4,4′-dianilino-1,1′-binaphthyl-5,5′-disulfonic acid]
time of bis-ANS binding to the interior (loading) [1]: several hours | bis-ANS binding kinetics [2]: Only rapid (effectively instantaneous) binding | diffusion into the internal cavity of MLD capsid II [3]: diffuse into the internal cavity of MLD capsid II (over hours)

CNC(=O)c1c(I)c(NC(C)=O)c(I)c(C(=O)O)c1I [iothalamate]
loading time [4]: > 19 h

CC[n+]1c(-c2ccccc2)c2cc(N)ccc2c2ccc(N)cc21 [ethidium]
diffusion into the internal cavity of MLD capsid II [3]: diffuse into the internal cavity of MLD capsid II (over hours)

CC(=O)Nc1c(I)c(C(=O)N[C@H]2C(O)O[C@H](CO)[C@@H](O)[C@@H]2O)c(I)c(N(C)C(C)=O)c1I (some centres unmarked) [Metrizamide]
diffusion into the internal cavity of MLD capsid II [3]: never been observed to detectably diffuse into MLD capsid II

CC(=O)N(CC(O)CO)c1c(I)c(C(=O)NCC(O)CO)c(I)c(C(=O)NCC(O)CO)c1I (centres unmarked) [Nycodenz]
entry into MLD capsid II ([5]; pre-centrifugation incubation at 61° C. and 68° C., conversion to high-density particle, shell intact): does enter | entry into MLD capsid II ([5]; pre-centrifugation incubation at temperatures as high as 54° C.): does not enter MLD capsid II
